What was measured:
[1] = Liquid; for viscosity: Concentric cylinders viscometry; for mass density: Vibrating tube method
[2] = xn = mol fraction of the nth substance listed; conditions: 100 kPa, Liquid, Concentric cylinders viscometry, x1 = 1
[3] = molar heat capacity at constant pressure; conditions: Liquid, Flow calorimetry

CCCCO [butan-1-ol]
[1], 100 kPa
Conditions	viscosity [mPa·s]
293.15 K	2.953
303.15 K	2.263
313.15 K	1.769

CCCCO [butan-1-ol] + C=CCCCC
[2]
Conditions	viscosity [mPa·s]
293.15 K	2.953
303.15 K	2.263
313.15 K	1.769

C=CCCCC [hex-1-ene]
Conditions	mass density [kg/m3]	molar heat capacity at constant pressure [J/K/mol]	viscosity [mPa·s]
[1], 273.15 K, 100 kPa	691.5	–	–
[1], 273.15 K, 1000 kPa	692.1	–	–
[1], 273.15 K, 2000 kPa	693	–	–
[1], 273.15 K, 5000 kPa	695.8	–	–
[1], 273.15 K, 10000 kPa	700	–	–
[1], 273.15 K, 15000 kPa	704	–	–
[1], 273.15 K, 20000 kPa	707.8	–	–
[1], 273.15 K, 30000 kPa	715	–	–
[1], 273.15 K, 40000 kPa	721.6	–	–
[1], 273.15 K, 50000 kPa	727.6	–	–
[1], 273.15 K, 60000 kPa	733.2	–	–
[1], 273.15 K, 70000 kPa	738.7	–	–
[1], 293.15 K, 100 kPa	672.8	–	0.28
[1], 293.15 K, 1000 kPa	673.8	–	–
[1], 293.15 K, 2000 kPa	674.9	–	–
[1], 293.15 K, 5000 kPa	678	–	–
[1], 293.15 K, 10000 kPa	682.9	–	–
[1], 293.15 K, 15000 kPa	687.5	–	–
[1], 293.15 K, 20000 kPa	691.8	–	–
[1], 293.15 K, 30000 kPa	699.8	–	–
[1], 293.15 K, 40000 kPa	707	–	–
[1], 293.15 K, 50000 kPa	713.7	–	–
[1], 293.15 K, 60000 kPa	719.9	–	–
[1], 293.15 K, 70000 kPa	725.8	–	–
[1], 303.15 K, 100 kPa	–	–	0.257
[1], 313.15 K, 100 kPa	653.8	–	0.236
[1], 313.15 K, 1000 kPa	654.9	–	–
[1], 313.15 K, 2000 kPa	656.2	–	–
[1], 313.15 K, 5000 kPa	659.9	–	–
[1], 313.15 K, 10000 kPa	665.5	–	–
[1], 313.15 K, 15000 kPa	670.8	–	–
[1], 313.15 K, 20000 kPa	675.7	–	–
[1], 313.15 K, 30000 kPa	684.6	–	–
[1], 313.15 K, 40000 kPa	692.6	–	–
[1], 313.15 K, 50000 kPa	699.9	–	–
[1], 313.15 K, 60000 kPa	706.9	–	–
[1], 313.15 K, 70000 kPa	713	–	–
[1], 333.15 K, 100 kPa	634	–	–
[1], 333.15 K, 1000 kPa	635.4	–	–
[1], 333.15 K, 2000 kPa	636.9	–	–
[1], 333.15 K, 5000 kPa	641.3	–	–
[1], 333.15 K, 10000 kPa	647.8	–	–
[1], 333.15 K, 15000 kPa	653.9	–	–
[1], 333.15 K, 20000 kPa	659.5	–	–
[1], 333.15 K, 30000 kPa	669.5	–	–
[1], 333.15 K, 40000 kPa	678.4	–	–
[1], 333.15 K, 50000 kPa	686.3	–	–
[1], 333.15 K, 60000 kPa	693.7	–	–
[1], 333.15 K, 70000 kPa	700.5	–	–
[3], 293.15 K, 100 kPa	–	179.2	–
[3], 293.15 K, 5000 kPa	–	174.9	–
[3], 293.15 K, 10000 kPa	–	172.7	–
[3], 293.15 K, 15000 kPa	–	169.9	–
[3], 293.15 K, 20000 kPa	–	168.1	–
[3], 293.15 K, 25000 kPa	–	165.7	–
[3], 313.15 K, 100 kPa	–	188.8	–
[3], 313.15 K, 5000 kPa	–	185.9	–
[3], 313.15 K, 10000 kPa	–	183.1	–
[3], 313.15 K, 15000 kPa	–	181.6	–
[3], 313.15 K, 20000 kPa	–	179.6	–
[3], 313.15 K, 25000 kPa	–	177.2	–

Reference: the NIST ThermoML archive (doi:10.1021/je301301j)
